The numbers were not newly measured in publication PMC7504818, “Synthetic Analogues of Aminoadamantane as Influenza Viral Inhibitors—In Vitro, In Silico and QSAR Studies” (Molecules, 2020), which cites them from elsewhere.

On the set-up of this data set: method as in doi:10.1177/095632029200300305, PMID 9706043, PMID 19116869. The following applies: orally introduced; cited from earlier work.

In the case of `CC(C)[C@H](N)C(=O)OCCOCn1cnc2c(=O)[nH]c(N)nc21` [Valacyclovir], the “bioavailability, times higher than acyclovir” value was 3–4 times.
